Results from PubChem BioAssay (NCI).
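1) Cells in 96-well plates. 2) Compound, 48 h, 5 concentrations. 3) Linear interpolation between surrounding doses. 4) Unreached endpoint = highest concentration. At the TGI there is no net growth.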

Tests used:
Experiment in all cases: NCI-60 cell line screen, 48 h
SK-MEL-5 melanoma = system: SK-MEL-5 melanoma
MDA-MB-231 breast = system: MDA-MB-231 breast
SK-MEL-2 melanoma = system: SK-MEL-2 melanoma
NCI-H226 lung = system: NCI-H226 lung
DU-145 prostate = system: DU-145 prostate
OVCAR-5 ovarian = system: OVCAR-5 ovarian
M14 melanoma = system: M14 melanoma
NCI/ADR-RES ovarian = system: NCI/ADR-RES ovarian
MDA-N = system: MDA-N
A498 renal = system: A498 renal
OVCAR-4 ovarian = system: OVCAR-4 ovarian
SNB-75 CNS = system: SNB-75 CNS

Row | SMILES | TGI (SK-MEL-5 melanoma) | TGI (MDA-MB-231 breast) | TGI (SK-MEL-2 melanoma) | TGI (NCI-H226 lung) | TGI (DU-145 prostate) | TGI (OVCAR-5 ovarian) | TGI (M14 melanoma) | TGI (NCI/ADR-RES ovarian) | TGI (MDA-N) | TGI (A498 renal) | TGI (OVCAR-4 ovarian) | TGI (SNB-75 CNS)
1 | COc1ccc(C#Cn2nnc3ccccc32)cc1 | > 100 µM | > 100 µM | > 100 µM | > 100 µM | > 100 µM | > 100 µM | > 100 µM | > 100 µM | > 100 µM | > 100 µM | > 100 µM | 
2 | Cc1cc2[nH]c3c(C#N)c(-c4ccccc4)c(N=Nc4ccc(F)cc4)c(=O)n3c2cc1C | > 100 µM | > 100 µM | > 100 µM | > 100 µM |  | > 100 µM | > 100 µM | > 100 µM | > 100 µM | > 100 µM | > 100 µM | > 100 µM
3 | C1=C(c2ccccc2)C(N2CCOCC2)Oc2ccccc21 (configuration not stated) | > 100 µM | > 100 µM |  | > 100 µM | > 100 µM | > 100 µM | > 100 µM | > 100 µM | > 100 µM | 92.3 µM | > 100 µM | > 100 µM
4 | CC(C)(C)C1CCC2c3c([nH]c4ccccc34)C3C(=O)N(c4ccc(C#N)cc4)C(=O)C3C2C1 (configuration not stated) | 25.5 µM | 35.2 µM | 30 µM | 42.1 µM | 35.7 µM | 56.8 µM | 72.6 µM | 53.5 µM | 26.9 µM | 35.5 µM |  | 
5 | Cc1ccc(S(=O)(=O)NC(CCC(=O)NNc2ccccc2)C(=O)NNc2ccccc2)cc1 (configuration not stated) | > 100 µM | > 100 µM | 83.2 µM | > 100 µM |  | > 100 µM | 78.8 µM | > 100 µM | > 100 µM | > 100 µM | 99.2 µM | > 100 µM
6 | Cc1cc(C)c2c(c1)CC1(Cc3cc(C)c(C)cc3C1=O)C2=O (configuration not stated) | > 100 µM | > 100 µM | > 100 µM | > 100 µM | > 100 µM | > 100 µM | > 100 µM | > 100 µM |  | > 100 µM | > 100 µM | > 100 µM
7 | N#CC1(C#N)C(C#N)(C#N)C1(C#N)C(N)=O | > 100 µM | > 100 µM | > 100 µM | > 100 µM | > 100 µM | > 100 µM | > 100 µM | > 100 µM | > 100 µM | > 100 µM | > 100 µM | 
8 | Cc1ccc(S(=O)(=O)NC(=O)NC(Cc2ccc(O)cc2)C(=O)O)cc1 (configuration not stated) | > 100 µM | > 100 µM | > 100 µM |  | > 100 µM | > 100 µM | > 100 µM | > 100 µM | > 100 µM |  | > 100 µM | > 100 µM
9 | CC(C)(C)OC(=O)N/C(C=O)=C\C1CCCCC1 | 31.3 µM | 44.2 µM | 54.9 µM | 55.1 µM | 95.9 µM | 42.3 µM | 30.4 µM | 44.3 µM | 50.3 µM |  | 97.8 µM | > 100 µM
10 | C#CC(O)(c1nc2ccccc2s1)c1nc2ccccc2s1 | 30.7 µM | 39.7 µM | 35.7 µM |  | > 100 µM | 51.6 µM | 32.8 µM | 75.6 µM | 57.4 µM | 35.2 µM | > 100 µM | 
